Key:
metastatic melanoma = settings: Phase 2, patients with metastatic melanoma; cited from earlier work
[1] = biological target: T1, human Nav1.7 voltage-gated sodium channels (Homo sapiens, UniProt Q15858); experiment: Manual whole-cell patch-clamp, inhibition of hNav1.7 sodium current; assay type: cell-based; settings: HEK293 cells stably transfected with SCN9A, holding potential -80 mV, peak current
T1 construct: expressed in transfected cells; host or cells: HEK293
Method: (§1) The potential inhibitory effect of Compound I-XXII on human voltage-gated sodium channels (hNav1.2/1.7) was evaluated by manual patch-clamp system according to the procedures as described. HEK293 cell line stably transfected with SCN2A/SCN9A gene was employed in this study and Tetrodotoxin (TTX) was used as a positive control to ensure the good quality of the assay.
(§2) General procedure: HEK 293 cells were stably transfected with human Nav1.2 or Nav1.7 voltage-gated sodium channels. The cells are routinely maintained in culture medium containing in 90% DMEM, 10% FBS, 100 U/mL Penicillin-Streptomycin and […] of G418. Before the assay, the cells were resuspended and plated onto the coverslips at 5×10^5 cells/per 6 cm cell culture dish for use. The voltage-gated Nav1.2 and Nav1.7 channel current was recorded at room temperature (25° C.) from randomly selected transfected cells under whole-cell patch clamp systems equipped with EPC10 USB (HEKA) or Multiclamp 700B amplifier (Molecular Devices), while electrical data was digitalized by Digidata1440A with sampling frequency over 10 kHz and acquired with Patchmaster or pClamp10 respectively. The glass electrode with resistance ranged from 2 to 3.5 MW was prepared by micropipette puller P-97 (Sutter Instrument) and filled with internal solutions (in mM): 140 KCl, 2 MgCl2, 10 EGTA, 10 HEPES and 5 MgATP (pH adjusted to 7.35 with KOH), while cells were bathed in extracellular solutions (in mM) 132 NaCl, 4 KCl, 3 CaCl2, 0.5 MgCl2, 11.1 glucose, and 10 HEPES (pH adjusted to 7.35 with NaOH). After rupture, the series membrane resistance was at least 50% compensated and capacitance was also compensated as well. All cells were voltage-clamped to a holding potential of −80 mV unless otherwise specified. The inward sodium currents were elicited by a 20-ms voltage pulse to 10 mV from −80 mV applied every 15 s. The sodium current was initially recorded for at least 120 seconds to assess the current stability, and only cells with recording parameters over acceptance criteria was finally used to assess the dose response to the local perfusion of Compound I-XXII. The blank vehicle was firstly applied to the patched cells in order to establish the recording baseline. After at least 5 min when the elicited sodium currents reaches stabilization, the test compound was perfused into recording chamber accumulatively from low to high concentrations. The positive control article, Tetrodotoxin (TTX), was also used to challenge same batch of cell in order to ensure the good performance of the recording system. All experiments were performed in triplicate for IC50 determination. Upon data acquisition, the PatchMaster or pClamfit software were used to extract the peak current from the original raw data, while the peak current inhibition was defined by equation as shown below.
(§3) The dose response curve for the test compound was plotted with % inhibition against the dose concentration of the test compound using Graphpad Prism 5.0 software, and then the data was fit to a sigmoid dose-response curve with variable slope for IC50 determination.

[2] = biological target: T2, human Nav1.2 voltage-gated sodium channels (Homo sapiens, UniProt Q99250); experiment: Manual whole-cell patch-clamp, inhibition of hNav1.2 sodium current; assay type: cell-based; settings: HEK293 cells stably transfected with SCN2A, holding potential -80 mV, peak current
T2 construct: expressed in transfected cells; host or cells: HEK293
T2 sequence (Q99250 whole entry): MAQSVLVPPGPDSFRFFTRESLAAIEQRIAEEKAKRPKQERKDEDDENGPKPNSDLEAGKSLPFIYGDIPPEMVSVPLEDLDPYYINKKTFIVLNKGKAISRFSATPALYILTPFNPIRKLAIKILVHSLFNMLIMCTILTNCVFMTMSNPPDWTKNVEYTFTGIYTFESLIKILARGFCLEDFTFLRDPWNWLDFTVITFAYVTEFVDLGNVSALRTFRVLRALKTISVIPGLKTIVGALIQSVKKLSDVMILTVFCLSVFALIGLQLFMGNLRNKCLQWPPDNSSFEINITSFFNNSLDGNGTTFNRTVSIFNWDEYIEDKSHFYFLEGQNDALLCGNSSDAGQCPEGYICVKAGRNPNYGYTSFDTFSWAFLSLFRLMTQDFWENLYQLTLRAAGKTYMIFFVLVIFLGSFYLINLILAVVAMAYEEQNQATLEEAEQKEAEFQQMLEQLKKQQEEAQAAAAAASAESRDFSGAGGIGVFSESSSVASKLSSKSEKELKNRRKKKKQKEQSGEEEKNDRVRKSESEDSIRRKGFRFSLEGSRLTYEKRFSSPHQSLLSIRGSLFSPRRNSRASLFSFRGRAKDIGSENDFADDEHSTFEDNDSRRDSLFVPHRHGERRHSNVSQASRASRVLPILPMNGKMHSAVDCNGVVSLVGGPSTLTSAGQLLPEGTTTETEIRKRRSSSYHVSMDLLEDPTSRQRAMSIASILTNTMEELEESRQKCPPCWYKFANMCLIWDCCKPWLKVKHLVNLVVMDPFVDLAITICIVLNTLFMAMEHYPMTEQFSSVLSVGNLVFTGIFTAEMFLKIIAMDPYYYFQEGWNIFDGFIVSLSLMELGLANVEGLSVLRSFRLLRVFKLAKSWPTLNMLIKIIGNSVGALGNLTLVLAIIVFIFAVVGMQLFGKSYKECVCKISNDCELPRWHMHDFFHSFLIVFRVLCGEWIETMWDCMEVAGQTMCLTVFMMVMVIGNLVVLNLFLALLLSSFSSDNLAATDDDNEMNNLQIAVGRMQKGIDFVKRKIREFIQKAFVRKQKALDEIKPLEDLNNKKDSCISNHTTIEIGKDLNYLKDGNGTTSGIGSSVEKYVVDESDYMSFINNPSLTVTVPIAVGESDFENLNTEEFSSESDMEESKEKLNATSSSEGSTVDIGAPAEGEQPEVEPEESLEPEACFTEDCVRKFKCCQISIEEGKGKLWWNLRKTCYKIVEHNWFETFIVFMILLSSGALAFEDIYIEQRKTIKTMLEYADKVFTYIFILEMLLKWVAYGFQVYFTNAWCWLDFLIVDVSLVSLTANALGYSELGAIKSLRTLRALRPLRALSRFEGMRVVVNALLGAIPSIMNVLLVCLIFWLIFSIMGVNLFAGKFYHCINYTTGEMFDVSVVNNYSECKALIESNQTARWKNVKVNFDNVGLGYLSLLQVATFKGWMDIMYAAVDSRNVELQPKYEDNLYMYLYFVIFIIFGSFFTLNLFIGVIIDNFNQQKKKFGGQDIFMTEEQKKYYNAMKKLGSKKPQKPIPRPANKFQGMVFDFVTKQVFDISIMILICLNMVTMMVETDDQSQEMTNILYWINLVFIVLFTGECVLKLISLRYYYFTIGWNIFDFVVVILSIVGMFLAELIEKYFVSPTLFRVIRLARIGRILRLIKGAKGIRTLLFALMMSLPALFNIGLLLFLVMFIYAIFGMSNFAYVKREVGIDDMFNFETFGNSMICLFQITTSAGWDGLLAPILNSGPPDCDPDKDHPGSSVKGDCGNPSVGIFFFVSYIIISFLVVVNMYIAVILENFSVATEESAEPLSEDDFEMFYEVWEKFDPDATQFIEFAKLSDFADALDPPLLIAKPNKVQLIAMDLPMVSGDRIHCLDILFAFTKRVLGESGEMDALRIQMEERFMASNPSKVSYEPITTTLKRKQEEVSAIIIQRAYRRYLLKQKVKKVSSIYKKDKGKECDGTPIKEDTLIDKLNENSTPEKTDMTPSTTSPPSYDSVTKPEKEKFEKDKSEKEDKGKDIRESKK
Method: as §1, §2, §3

[3] = Rat pharmacokinetic study; assay type: in vivo, male Sprague-Dawley rats; settings: male, Sprague-Dawley, plasma, PO, single dose 5.8 mg/kg
Method: For rat pharmacokinetic studies, male Sprague-Dawley rats were housed individually and fasted overnight before use. The animal dosing experiments were carried out in accordance to the National Institutes of Health Guide to the Care and Use of Laboratory Animals and the Animal Welfare Act. For Compound I, a single dose of 5.8 mg/kg was administered to each rat in two groups (n=5/group) via intravenous (IV) and oral (PO) administration, respectively. The vehicle used for IV administration was 10% (v/v) CremophorEL in 90% PBS. The vehicle used for PO administration was 0.5% (w/v) methylcellulose in normal saline solution. Blood samples were collected at specified time-points (pre-dose, 30 minutes, 1 hour, 2 hours, 4 hours, 7 hours, 8 hours, 12 hours, 24 hours) following administration to individual rats within IV and PO group. Blood samples were clotted on ice immediately, plasma samples were then isolated by centrifugation and stored frozen (−80° C.) until further analysis. The concentrations of Compound I were individually determined by LC/MS/MS assay. Various pharmacokinetic parameters were calculated using Phoenix™ WinNonlin® software. To quantify the bioconversion efficiency of the Compound I in the circulation system, the bioavailability of Compound I after PO administration was calculated.

[4] = test system: SNL (Spinal Nerve Ligation) rats; experiment: Mechanical allodynia in SNL (spinal nerve ligation) rats, von Frey; assay type: in vivo, Sprague-Dawley rats; settings: 5 mg/kg i.p., 0.5 h time point post dose
Method: SNL model is a commonly used model to measure surgical induced neuropathic pain. The goal of the study was to evaluate the efficacy of Compound I to attenuate mechanical allodynia in SNL model in Sprague-Dawley rats.
In this study, SNL model was created following typical procedure and the approved drug Tapentadol (XW-TAP) was used as reference compound. Gabapentin was applied as positive control for model validation.
1) 5 mg/kg Compound I: Added 17.13 mg Compound I to 16.96 mL 0.5% methylcellulose in normal saline solution, vortexed to fully mix.
1) Rats were placed individually in a plastic enclosure with a mesh bottom which allowed full access to the paws. Rats were acclimated for 15 min prior to testing.
2) After acclimation, the mid-plantar hind paw was touched with one of a series of eight von Frey hairs with logarithmically incremental stiffness as follows: 3.61 (0.4 g), 3.84 (0.6 g), 4.08 (1 g), 4.31 (2 g), 4.56 (4 g), 4.74 (6 g), 4.93 (8 g) and 5.18 (15 g). The von Frey hairs were presented perpendicularly to the plantar surface with sufficient force to cause slight buckling against the paw and held for approximately 6-8 s. Stimulation was presented at intervals of 5 seconds, allowing for apparent resolution of any behavioral responses to previous stimulus. A positive response was noted if the paw was sharply withdrawn. […]

T1 sequence (Q15858 whole entry): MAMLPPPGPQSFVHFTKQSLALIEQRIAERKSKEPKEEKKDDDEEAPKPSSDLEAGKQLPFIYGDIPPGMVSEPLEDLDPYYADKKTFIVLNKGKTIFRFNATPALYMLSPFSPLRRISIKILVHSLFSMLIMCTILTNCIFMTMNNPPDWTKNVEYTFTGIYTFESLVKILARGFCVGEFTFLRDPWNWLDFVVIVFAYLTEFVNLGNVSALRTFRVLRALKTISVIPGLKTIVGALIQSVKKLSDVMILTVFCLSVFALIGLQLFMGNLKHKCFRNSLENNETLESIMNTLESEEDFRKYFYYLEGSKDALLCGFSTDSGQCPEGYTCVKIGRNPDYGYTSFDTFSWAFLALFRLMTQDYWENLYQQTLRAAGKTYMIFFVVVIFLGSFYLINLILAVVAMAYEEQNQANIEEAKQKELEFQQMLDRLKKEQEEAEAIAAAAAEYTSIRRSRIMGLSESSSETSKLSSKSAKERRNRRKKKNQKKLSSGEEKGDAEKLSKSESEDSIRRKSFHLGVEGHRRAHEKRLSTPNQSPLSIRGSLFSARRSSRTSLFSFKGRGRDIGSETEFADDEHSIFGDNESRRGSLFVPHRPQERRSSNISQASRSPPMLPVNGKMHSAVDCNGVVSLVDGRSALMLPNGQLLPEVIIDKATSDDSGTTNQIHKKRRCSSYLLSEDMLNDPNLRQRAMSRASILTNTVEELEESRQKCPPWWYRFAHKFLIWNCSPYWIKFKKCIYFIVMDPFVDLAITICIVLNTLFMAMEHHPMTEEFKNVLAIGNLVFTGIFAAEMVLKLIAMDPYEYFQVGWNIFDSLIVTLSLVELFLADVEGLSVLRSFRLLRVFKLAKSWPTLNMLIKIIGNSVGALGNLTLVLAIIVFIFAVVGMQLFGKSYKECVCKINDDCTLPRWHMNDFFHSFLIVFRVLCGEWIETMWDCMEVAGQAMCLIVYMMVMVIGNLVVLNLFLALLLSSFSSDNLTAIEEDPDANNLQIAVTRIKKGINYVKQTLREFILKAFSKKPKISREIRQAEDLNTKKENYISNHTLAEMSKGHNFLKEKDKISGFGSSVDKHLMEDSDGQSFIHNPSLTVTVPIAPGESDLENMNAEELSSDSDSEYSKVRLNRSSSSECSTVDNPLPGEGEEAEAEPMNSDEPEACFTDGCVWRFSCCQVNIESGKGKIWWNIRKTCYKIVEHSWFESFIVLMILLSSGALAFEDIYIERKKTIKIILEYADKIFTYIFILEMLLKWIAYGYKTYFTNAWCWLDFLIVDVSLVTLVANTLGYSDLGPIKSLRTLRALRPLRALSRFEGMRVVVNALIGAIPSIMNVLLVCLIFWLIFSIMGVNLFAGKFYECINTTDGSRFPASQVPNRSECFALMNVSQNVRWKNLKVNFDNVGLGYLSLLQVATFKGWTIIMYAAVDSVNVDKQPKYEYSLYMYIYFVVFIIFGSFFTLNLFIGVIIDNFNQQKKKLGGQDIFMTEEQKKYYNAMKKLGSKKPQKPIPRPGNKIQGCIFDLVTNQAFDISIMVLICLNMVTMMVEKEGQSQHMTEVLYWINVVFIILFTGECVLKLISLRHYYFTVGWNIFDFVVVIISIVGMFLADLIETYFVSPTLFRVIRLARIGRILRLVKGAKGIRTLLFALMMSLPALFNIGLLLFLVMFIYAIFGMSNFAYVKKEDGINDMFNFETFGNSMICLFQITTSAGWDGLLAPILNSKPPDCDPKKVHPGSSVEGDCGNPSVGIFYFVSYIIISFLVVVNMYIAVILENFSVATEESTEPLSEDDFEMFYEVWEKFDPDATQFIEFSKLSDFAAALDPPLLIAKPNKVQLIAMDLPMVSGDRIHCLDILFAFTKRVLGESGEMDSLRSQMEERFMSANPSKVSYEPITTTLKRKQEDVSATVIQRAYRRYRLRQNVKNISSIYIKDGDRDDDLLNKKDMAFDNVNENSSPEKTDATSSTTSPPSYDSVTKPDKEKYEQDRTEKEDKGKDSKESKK

IC50 [1] [µM]	IC50 [2] [µM]	SMILES	other results
0.722	4.37	Nc1nc2ccc(S(F)(F)(F)(F)F)cc2[se]1 [Compound V, 6-(Pentafluorosulfanyl)benzo[d][1,3]selenazol-2-amine]	
0.745	10.1	Nc1nc2ccc(C(F)(F)F)cc2[se]1 [Compound VI, 6-(Trifluoromethyl)benzo[d][1,3]selenazol-2-amine]	
1.36	18	Nc1nc2ccc(OC(F)(F)F)cc2[se]1 [Compound VII, 6-(Trifluoromethoxy)benzo[d][1,3]selenazol-2-amine]	

More lines, now with the values behind:

SMILES	IC50 [1] [µM]	IC50 [2] [µM]	other results
Nc1nc2ccc(OC(F)(F)F)cc2s1 [Riluzole]			RECIST grade (metastatic melanoma): no overall improvement of RECIST grade
Nc1nc2ccc(S(F)(F)(F)(F)F)cc2s1 [Compound I, 6-(Pentafluorosulfanyl)benzo[d]thiazol-2-amine]	0.682	4.67	AUC(0-t) [3]: 7690 ng·h/mL; Cmax [3]: 942 ng/mL; Tmax [3]: 2.3 h; half-life [3]: 7.11 h; anti-allodynic effect on SNL-induced mechanical allodynia [4]: reversed SNL-induced mechanical allodynia
Nc1nc2ccc(SC(F)(F)F)cc2[se]1 [Compound IX, 6-((Trifluoromethyl)thio)benzo[d][1,3]selenazol-2-amine]	1.17	15.3	
